Values quoted from earlier work, collected in patent publication US20050020601A1, “Novel pyrazinones as CRF1 receptor antagonists” (Pfizer Inc, priority 2003, published 2005).

Experiments:
[1] = test system: cultured human epidermal keratinocyte cells
rats = details: for effect on the "anxiogenic" effects/actions of CRF: conflict test

SMILES | keratinocyte cell proliferation [1] | effect on the "anxiogenic" effects/actions of CRF (rats) | behavioral activity alone (rats; operant conflict test, compound alone)
CCN(c1nc(C)cc(N2CC=C(c3cccc(F)c3)CC2)n1)c1ccc(C(C)C)cc1SC [2-[N-(2-methylthio-4-isopropylphenyl)-N-ethylamino]-4-[4-(3-fluorophenyl)-1,2,3,6-tetrahydropyridine-1-yl]-6-methylpyrimidine] | keratinocyte cell proliferation promoting effect | – | –
CCOC(=O)c1ncn2c1CN(C)C(=O)c1cc(F)ccc1-2 [Ro 15-1788] | – | reversed the effects of CRF in a dose-dependent manner | without behavioral activity alone
CNC(=O)c1cc2c(cn1)[nH]c1ccccc12 [FG 7142] | – | enhanced the actions of CRF | –
